Data: US8022036B2, “Use of thymosin alpha 1 for the treatment of immunological diseases” (Sigma-Tau Industrie Farmaceutiche Riunite S.p.A., priority 2006, dated 2011)
No end group written: not given here.

What was measured:
[1] = system: methylcholanthrene-induced fibrosarcoma; settings: mice; cited from earlier work
[2] = system: human non-small cell lung cancer (NSCLC) cells; settings: subcutaneous administration, nude mice; cited from earlier work
A. fumigatus = experiment: Aspergillosis in experimental HSCT after adoptive transfer of fungus-pulsed DCs; type: in vivo, mouse
Method: Human peripheral blood mononuclear cells were obtained from healthy donors and seven recipients of T-cell depleted haploidentical HSCT, upon written informed consent. Donor typing, engraftment and GVHD were assessed as described (Blood. 2005; 106; 4397-4406). Experimental HSCT model Lethally irradiated (8 Gy) C57BL6 mice were infused with T cell-depleted bone marrow cells from BALB/c mice (Blood. 2003; 102:3807-3814). For GVHD, purified donor CD3+ T splenocytes were added to the graft (Science. 2002; 295:2097-2100). Individual mice were graded weekly from 0-2 for each GVHD criterion (see legend to FIG. 3) without knowledge of treatment group.
The strain of A. fumigatus, the culture conditions and infection were as described in Blood. 2004; 103:4232-4239. Mice were anesthetized with 2.5% avertin (Sigma Chemical Co, St. Louis, Mo.). Quantification of fungal growth in the lungs was done by the chitin assay and results are expressed as micrograms of glucosamine per pair of lungs, and PAS staining was done as described in Blood. 2004; 103:4232-4239.
Mice received twice intraperitoneal injections of DCs, at weekly interval, starting a day after HSCT and infected a week after the last DC administration. Three days later, lung homogenates, CD4+ T cells (>98% on FACS analysis), CD4+CD25− (>98%) or CD4+CD25+ (>82%) purified with the specific Miltenyi Biotec isolation kits were assessed for pattern of pro- and anti-inflammatory (TNF-a/IL-10 in lung homogenates), Th1 (IFN-γ) or Th2 (IL-4) cytokine production by CD4+ cells stimulated with Aspergillus-pulsed DCs (Blood. 2003; 102:3807-3814) frequency of CD25+ IL-10^+ TGF-β+ T reg cells, lymphoproliferation and gene expression by RT-PCR. For proliferation, TLN CD4+ T lymphocytes were plated (10^5 cells/well) with 10^5 cells/well irradiated allogeneic splenocytes or autologous spDCs pulsed with conidia or 10 μg/mL Con A for five days before H^3-thymidine labeling.
Lethally irradiated C57BL/6 mice received=2×10^6 T cell-depleted allogeneic bone marrow cells from BALB/c mice 2 wk before the intratracheal injection of 2×10^8/80 μl saline Aspergillus conidia. One and seven days after transplantation, mice received Aspergillus-pulsed GM- or FL-DCs grown in Thymosin alpha 1, intraperitoneally.
Resistance to infection was assessed in terms of MST (median survival time in days) and fungal growth in the lung ([…] glucosamine content, bars indicating standard errors) 3 days after infection or at the time of death (A). […] The degree of systemic GVHD was assessed by a scoring system that sums changes in five clinical parameters: weight loss, posture (hunching), activity, fur texture, and skin integrity (maximum index=10). […]

[3] = system: bone marrow cells (GM-DCs, FL-DCs); experiment: Murine DC generation from bone marrow cells, flow cytometry and light microscopy; type: cell-based, mouse
Description: GM-DCs or FL-DCs were obtained from purified CD14+ monocytes from healthy donors or transplanted patients (1 month post-HSCT) cultured in Iscove's modified medium for 7-9 days, in the presence of rGM-CSF (Schering-Plough, Milan, Italy) and rIL-4 (Peprotech, Inalco, Milan, Italy) or FLT3-L (Immunex Corporation, Seattle, Wash.) (Blood. 2004; 103:4232-4239). DC recovery was between 20-30% reduced in cultures from transplanted patients. Murine GM-DCs or FL-DCs were obtained from bone marrow cells for 7-9 days, as described (Blood. 2004; 103:4232-4239). Thymosin alpha 1 and sThymosin alpha 1 were added to the cultures at 20 ng/mL. DCs (>99% CD11c+ consisting of 90-95% CD8-, 5-10% CD8+, and 1-5% B220+ cells) were purified from spleens (spDCs) by magnetic-activated sorting using CD11c MicroBeads and MidiMacs (Miltenyi Biotech). DC populations were further separated into CD8−, CD8+ and B220+ fractions by means of CD8 or B220 MicroBeads (Miltenyi Biotech). DCs were pulsed in serum-free Iscove medium for 24 hours with live unopsonized Aspergillus conidia or Zymosan from Saccharomyces cerevisiae (Sigma) or CpG-ODN 2006 as described.7 Phagocytosis was done as described (Blood. 2004; 103:4232-4239). Photographs were taken using a high Resolution Microscopy Color Camera AxioCam, using the AxioVision Software Rel. 3.1 (Carl Zeiss, Milan, Italy).
DCs were analyzed for antigen expression with a FACScan flow cytofluorometer (Becton Dickinson, Mountain View, Calif.) equipped with CELLQuest™ software and using conjugated mAbs from PharMingen (Blood. 2004; 103:4232-4239).
To assess how Thymosin alpha 1 would affect the phenotypic and functional properties of murine DCs, bone marrow cells were grown for 7-9 days in medium containing GM-CSF/IL4 or FLT3L, in the presence of Thymosin alpha 1 or a control, scrambled peptide. After maturation, cells were analyzed by flow cytometry and light microscopy (FIG. 1A).
(A) Surface expression of CD11c, CD 11b and B220 on DCs derived from bone marrow of C57BL6, TLR9−/− or IFN-aβR−/−mice and cultured with GM-CSF/IL-4 (GM-DCs) or FLT3L (FL-DCs) in the presence of Thymosin alpha 1 (+) or the scrambled peptide ( ). Percent of double positive cells is indicated.

Thymosin alpha 1: naturally occurring thymic peptide; supplied as purified, endotoxin-free sterile lyophilized acetylated polypeptide from SciClone Pharmaceuticals (Ac-SDAAVDTSSEITTKDLKEKKEVVEEAEN; UniProt P06454 2-29, looked up)
pulmonary metastases [1]: reduced | tumor volume [2]: significantly decreased tumor volume | survival to infection in the presence of donor T cells (A. fumigatus; donor T cells plus Thymosin alpha 1-treated GM-DCs): survived infection | local inflammatory cell recruitment and reaction in the lungs (histopathology) (A. fumigatus; mice infused with Thymosin alpha 1-treated GM-DCs, 3 days after infection): few healing infiltrates of inflammatory cells with no evidence of bronchial wall damage and inflammatory response and low | vaccinating potential of FL-DCs (A. fumigatus; transfer of Thymosin alpha 1-treated FL-DCs): would not affect the vaccinating potential of FL-DCs | protection from aspergillosis (survival, fungal growth) (A. fumigatus; transfer of Thymosin alpha 1-treated GM-DCs, intraperitoneally): complete protection | B220+CD11c+ cells in FL-DCs ([3]; FLT3L culture, 20 ng/mL): not increased | total yield of cells ([3]; GM-CSF/IL-4 culture, 20 ng/mL): did not affect total yield of cells | expansion of pDCs in GM-DCs from TLR9-/- or IFN-aβR-/- mice ([3]; GM-DCs from knockout mice): not observed | expansion of B220+CD11c+ cells ([3]; Thymosin alpha 1 alone, without GM-CSF/IL-4 or FLT3L): not observed | occurrence of pDCs (B220+CD11c+ cells) in GM-DCs ([3]; bone marrow cells, GM-CSF/IL-4, 7-9 days, peptide 20 ng/mL): greatly increased the occurrence of pDCs in GM-DCs
